For test [1], the target named is T1, Cyclin-dependent kinase 2 (Homo sapiens, UniProt P24941). Nature of the test: Inhibition of Cyclin-dependent kinase 2 (CDK2).
The target in test [2] is T1, Cyclin-dependent kinase 2. Put plainly: Selectivity for cyclin-dependent kinase 2, CDK2.
Test [3] deals with Tyrosine-protein kinase Fyn (Homo sapiens) (UniProt P06241). Put plainly: Selectivity for Fyn kinase.
For test [4], the target named is T2, Serine/threonine-protein kinase 3 (Homo sapiens) (UniProt Q13188).
T2 sequence (whole entry): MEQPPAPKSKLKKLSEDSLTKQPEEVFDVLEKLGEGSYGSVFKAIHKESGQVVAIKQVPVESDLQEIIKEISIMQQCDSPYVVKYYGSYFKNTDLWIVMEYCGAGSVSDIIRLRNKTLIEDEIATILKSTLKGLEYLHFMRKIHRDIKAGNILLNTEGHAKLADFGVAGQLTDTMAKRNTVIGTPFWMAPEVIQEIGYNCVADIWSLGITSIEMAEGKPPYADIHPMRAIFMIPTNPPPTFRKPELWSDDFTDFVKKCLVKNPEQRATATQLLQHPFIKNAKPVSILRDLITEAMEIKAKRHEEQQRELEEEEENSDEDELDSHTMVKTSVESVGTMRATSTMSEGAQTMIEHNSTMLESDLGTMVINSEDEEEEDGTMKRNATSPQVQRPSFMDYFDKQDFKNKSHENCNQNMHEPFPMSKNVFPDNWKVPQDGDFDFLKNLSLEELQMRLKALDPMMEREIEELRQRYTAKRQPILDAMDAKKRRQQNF
Nature of the test: Selectivity for Serine/threonine kinase 3.

In test [5] the target is cAMP-dependent protein kinase (PKA) (Homo sapiens) (UniProt P22694+P17612+P22612). Put plainly: Selectivity for PKA. Format: protein assay.
Test [6] is described as follows: Compound was tested for its relative bone-targeting affinity using a hydroxyapatite column.
Test [7] addresses Cyclin-dependent kinase 1 (Homo sapiens) (UniProt P06493). Nature of the test: Selectivity for cyclin-dependent kinase-1, CDK1.
Test [8] concerns the target Tyrosine-protein kinase CSK (Homo sapiens) (UniProt P41240). Put plainly: Selectivity over Protein kinase CSK (100-500).
Test [9] in a line: Selectivity towards Protein phosphatase, TC-PTP.
For test [10], the target named is Serine/threonine-protein kinase pim-1 (Homo sapiens) (UniProt P11309). Nature of the test: Selectivity for pim-1 oncogene.
Chain of Serine/threonine-protein kinase pim-1 (Homo sapiens) (P11309 whole entry, looked up): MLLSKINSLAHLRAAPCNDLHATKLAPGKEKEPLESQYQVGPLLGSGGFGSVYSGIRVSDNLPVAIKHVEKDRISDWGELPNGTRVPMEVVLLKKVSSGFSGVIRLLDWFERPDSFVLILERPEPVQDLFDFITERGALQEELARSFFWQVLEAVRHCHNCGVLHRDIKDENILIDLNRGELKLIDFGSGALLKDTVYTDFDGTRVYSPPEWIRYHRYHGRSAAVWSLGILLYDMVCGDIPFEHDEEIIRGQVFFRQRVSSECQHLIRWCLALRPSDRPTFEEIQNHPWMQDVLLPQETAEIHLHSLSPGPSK
Test [11] shares this target. Put plainly: Selectivity towards Protein kinase, PIM1.
The target of test [12] is Tyrosine-protein kinase Lck (Homo sapiens) (UniProt P06239). Nature of the test: Selectivity p56 Lck tyrosine kinase.
The target in test [13] is Mitogen-activated protein kinase 3 (Homo sapiens) (UniProt P27361). Put plainly: Selectivity for mitogen-activated protein kinase, ERK1.
Chain of Mitogen-activated protein kinase 3 (Homo sapiens) (P27361 whole entry): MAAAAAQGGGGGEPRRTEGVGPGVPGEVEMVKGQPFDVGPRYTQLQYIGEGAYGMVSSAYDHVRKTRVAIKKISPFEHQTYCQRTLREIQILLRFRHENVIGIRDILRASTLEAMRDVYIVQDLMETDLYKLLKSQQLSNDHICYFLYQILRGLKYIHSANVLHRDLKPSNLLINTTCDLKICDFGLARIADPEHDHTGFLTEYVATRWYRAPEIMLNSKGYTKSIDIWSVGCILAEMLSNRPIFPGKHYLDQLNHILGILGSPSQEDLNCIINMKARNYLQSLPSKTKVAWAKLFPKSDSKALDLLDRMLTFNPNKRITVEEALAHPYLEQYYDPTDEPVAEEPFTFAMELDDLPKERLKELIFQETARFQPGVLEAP
For test [14], the target named is Receptor-type tyrosine-protein phosphatase F (Homo sapiens) (UniProt P10586). Put plainly: Selectivity towards Protein phosphatase, LAR.
The target in test [15] is T3, Tyrosine-protein phosphatase non-receptor type 1 (Homo sapiens) (UniProt P18031).
T3 sequence (whole entry): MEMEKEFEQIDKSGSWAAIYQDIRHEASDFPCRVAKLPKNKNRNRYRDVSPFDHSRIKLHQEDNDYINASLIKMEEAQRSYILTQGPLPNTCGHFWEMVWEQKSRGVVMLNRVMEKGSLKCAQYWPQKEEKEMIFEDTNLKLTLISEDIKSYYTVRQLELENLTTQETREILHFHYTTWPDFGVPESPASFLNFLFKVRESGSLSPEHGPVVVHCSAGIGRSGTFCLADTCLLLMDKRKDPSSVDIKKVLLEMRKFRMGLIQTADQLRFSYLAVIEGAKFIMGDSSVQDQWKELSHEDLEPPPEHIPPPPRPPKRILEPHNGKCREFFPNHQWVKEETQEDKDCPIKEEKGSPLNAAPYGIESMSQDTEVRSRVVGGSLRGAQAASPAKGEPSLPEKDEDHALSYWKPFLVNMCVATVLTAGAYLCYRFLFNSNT
Nature of the test: Selectivity towards Protein phosphatase, PTP1b.

For test [16], the target named is Serine/threonine-protein kinase PAK 3 (Homo sapiens) (UniProt O75914). Nature of the test: Selectivity for p21-activated kinase-3, PAK3.
In test [17] the target is T4, Scaffold protein ILK (Homo sapiens) (UniProt Q13418).
T4 sequence (whole entry): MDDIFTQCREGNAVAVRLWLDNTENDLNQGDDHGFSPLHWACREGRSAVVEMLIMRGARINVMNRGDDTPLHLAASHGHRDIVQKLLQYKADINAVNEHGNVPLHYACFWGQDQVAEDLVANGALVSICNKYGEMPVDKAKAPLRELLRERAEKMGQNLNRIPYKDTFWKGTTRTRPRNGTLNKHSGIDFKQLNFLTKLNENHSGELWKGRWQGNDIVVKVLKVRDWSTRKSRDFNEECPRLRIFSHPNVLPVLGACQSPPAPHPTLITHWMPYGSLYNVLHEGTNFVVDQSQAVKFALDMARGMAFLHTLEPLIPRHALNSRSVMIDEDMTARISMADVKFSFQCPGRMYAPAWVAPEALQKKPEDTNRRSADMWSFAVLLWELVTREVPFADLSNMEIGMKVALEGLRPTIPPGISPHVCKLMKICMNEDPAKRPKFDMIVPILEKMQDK
Nature of the test: Selectivity towards Protein kinase, ILK1.

Test [18] deals with Wee1-like protein kinase (Homo sapiens) (UniProt P30291). Nature of the test: Selectivity for Protein kinase WEE1.
Test [19] has as its target Casein kinase II (Homo sapiens) (UniProt P67870+P68400+P19784). Put plainly: Selectivity for casein kinase II, CK2. The format is protein-complex assay.
The target in test [20] is Cyclin-dependent kinase 5 (Homo sapiens) (UniProt Q00535). Put plainly: Selectivity for cyclin-dependent kinase-5, CDK5.
The target in test [21] is Glycogen synthase kinase-3 beta (Homo sapiens) (UniProt P49841). Nature of the test: Selectivity for GSK3-beta.
The target of test [22] is Protein kinase C (PKC) (Homo sapiens) (UniProt O94806+P41743+P17252+P05129+Q05655+P05771+Q05513+Q02156+P24723+Q15139+Q04759). Nature of the test: Selectivity for Protein kinase, PKC. Format: protein assay.
Test [23] can be described thus: Selectivity towards Protein kinase, EST-PT1.
Test [24] can be described thus: Selectivity towards Protein phosphatase, MEG2.
For test [25], the target named is DNA-dependent protein kinase catalytic subunit (Homo sapiens) (UniProt P78527). Put plainly: Selectivity for Protein kinase, DNAPK.
Chain of DNA-dependent protein kinase catalytic subunit (Homo sapiens) (P78527 whole entry): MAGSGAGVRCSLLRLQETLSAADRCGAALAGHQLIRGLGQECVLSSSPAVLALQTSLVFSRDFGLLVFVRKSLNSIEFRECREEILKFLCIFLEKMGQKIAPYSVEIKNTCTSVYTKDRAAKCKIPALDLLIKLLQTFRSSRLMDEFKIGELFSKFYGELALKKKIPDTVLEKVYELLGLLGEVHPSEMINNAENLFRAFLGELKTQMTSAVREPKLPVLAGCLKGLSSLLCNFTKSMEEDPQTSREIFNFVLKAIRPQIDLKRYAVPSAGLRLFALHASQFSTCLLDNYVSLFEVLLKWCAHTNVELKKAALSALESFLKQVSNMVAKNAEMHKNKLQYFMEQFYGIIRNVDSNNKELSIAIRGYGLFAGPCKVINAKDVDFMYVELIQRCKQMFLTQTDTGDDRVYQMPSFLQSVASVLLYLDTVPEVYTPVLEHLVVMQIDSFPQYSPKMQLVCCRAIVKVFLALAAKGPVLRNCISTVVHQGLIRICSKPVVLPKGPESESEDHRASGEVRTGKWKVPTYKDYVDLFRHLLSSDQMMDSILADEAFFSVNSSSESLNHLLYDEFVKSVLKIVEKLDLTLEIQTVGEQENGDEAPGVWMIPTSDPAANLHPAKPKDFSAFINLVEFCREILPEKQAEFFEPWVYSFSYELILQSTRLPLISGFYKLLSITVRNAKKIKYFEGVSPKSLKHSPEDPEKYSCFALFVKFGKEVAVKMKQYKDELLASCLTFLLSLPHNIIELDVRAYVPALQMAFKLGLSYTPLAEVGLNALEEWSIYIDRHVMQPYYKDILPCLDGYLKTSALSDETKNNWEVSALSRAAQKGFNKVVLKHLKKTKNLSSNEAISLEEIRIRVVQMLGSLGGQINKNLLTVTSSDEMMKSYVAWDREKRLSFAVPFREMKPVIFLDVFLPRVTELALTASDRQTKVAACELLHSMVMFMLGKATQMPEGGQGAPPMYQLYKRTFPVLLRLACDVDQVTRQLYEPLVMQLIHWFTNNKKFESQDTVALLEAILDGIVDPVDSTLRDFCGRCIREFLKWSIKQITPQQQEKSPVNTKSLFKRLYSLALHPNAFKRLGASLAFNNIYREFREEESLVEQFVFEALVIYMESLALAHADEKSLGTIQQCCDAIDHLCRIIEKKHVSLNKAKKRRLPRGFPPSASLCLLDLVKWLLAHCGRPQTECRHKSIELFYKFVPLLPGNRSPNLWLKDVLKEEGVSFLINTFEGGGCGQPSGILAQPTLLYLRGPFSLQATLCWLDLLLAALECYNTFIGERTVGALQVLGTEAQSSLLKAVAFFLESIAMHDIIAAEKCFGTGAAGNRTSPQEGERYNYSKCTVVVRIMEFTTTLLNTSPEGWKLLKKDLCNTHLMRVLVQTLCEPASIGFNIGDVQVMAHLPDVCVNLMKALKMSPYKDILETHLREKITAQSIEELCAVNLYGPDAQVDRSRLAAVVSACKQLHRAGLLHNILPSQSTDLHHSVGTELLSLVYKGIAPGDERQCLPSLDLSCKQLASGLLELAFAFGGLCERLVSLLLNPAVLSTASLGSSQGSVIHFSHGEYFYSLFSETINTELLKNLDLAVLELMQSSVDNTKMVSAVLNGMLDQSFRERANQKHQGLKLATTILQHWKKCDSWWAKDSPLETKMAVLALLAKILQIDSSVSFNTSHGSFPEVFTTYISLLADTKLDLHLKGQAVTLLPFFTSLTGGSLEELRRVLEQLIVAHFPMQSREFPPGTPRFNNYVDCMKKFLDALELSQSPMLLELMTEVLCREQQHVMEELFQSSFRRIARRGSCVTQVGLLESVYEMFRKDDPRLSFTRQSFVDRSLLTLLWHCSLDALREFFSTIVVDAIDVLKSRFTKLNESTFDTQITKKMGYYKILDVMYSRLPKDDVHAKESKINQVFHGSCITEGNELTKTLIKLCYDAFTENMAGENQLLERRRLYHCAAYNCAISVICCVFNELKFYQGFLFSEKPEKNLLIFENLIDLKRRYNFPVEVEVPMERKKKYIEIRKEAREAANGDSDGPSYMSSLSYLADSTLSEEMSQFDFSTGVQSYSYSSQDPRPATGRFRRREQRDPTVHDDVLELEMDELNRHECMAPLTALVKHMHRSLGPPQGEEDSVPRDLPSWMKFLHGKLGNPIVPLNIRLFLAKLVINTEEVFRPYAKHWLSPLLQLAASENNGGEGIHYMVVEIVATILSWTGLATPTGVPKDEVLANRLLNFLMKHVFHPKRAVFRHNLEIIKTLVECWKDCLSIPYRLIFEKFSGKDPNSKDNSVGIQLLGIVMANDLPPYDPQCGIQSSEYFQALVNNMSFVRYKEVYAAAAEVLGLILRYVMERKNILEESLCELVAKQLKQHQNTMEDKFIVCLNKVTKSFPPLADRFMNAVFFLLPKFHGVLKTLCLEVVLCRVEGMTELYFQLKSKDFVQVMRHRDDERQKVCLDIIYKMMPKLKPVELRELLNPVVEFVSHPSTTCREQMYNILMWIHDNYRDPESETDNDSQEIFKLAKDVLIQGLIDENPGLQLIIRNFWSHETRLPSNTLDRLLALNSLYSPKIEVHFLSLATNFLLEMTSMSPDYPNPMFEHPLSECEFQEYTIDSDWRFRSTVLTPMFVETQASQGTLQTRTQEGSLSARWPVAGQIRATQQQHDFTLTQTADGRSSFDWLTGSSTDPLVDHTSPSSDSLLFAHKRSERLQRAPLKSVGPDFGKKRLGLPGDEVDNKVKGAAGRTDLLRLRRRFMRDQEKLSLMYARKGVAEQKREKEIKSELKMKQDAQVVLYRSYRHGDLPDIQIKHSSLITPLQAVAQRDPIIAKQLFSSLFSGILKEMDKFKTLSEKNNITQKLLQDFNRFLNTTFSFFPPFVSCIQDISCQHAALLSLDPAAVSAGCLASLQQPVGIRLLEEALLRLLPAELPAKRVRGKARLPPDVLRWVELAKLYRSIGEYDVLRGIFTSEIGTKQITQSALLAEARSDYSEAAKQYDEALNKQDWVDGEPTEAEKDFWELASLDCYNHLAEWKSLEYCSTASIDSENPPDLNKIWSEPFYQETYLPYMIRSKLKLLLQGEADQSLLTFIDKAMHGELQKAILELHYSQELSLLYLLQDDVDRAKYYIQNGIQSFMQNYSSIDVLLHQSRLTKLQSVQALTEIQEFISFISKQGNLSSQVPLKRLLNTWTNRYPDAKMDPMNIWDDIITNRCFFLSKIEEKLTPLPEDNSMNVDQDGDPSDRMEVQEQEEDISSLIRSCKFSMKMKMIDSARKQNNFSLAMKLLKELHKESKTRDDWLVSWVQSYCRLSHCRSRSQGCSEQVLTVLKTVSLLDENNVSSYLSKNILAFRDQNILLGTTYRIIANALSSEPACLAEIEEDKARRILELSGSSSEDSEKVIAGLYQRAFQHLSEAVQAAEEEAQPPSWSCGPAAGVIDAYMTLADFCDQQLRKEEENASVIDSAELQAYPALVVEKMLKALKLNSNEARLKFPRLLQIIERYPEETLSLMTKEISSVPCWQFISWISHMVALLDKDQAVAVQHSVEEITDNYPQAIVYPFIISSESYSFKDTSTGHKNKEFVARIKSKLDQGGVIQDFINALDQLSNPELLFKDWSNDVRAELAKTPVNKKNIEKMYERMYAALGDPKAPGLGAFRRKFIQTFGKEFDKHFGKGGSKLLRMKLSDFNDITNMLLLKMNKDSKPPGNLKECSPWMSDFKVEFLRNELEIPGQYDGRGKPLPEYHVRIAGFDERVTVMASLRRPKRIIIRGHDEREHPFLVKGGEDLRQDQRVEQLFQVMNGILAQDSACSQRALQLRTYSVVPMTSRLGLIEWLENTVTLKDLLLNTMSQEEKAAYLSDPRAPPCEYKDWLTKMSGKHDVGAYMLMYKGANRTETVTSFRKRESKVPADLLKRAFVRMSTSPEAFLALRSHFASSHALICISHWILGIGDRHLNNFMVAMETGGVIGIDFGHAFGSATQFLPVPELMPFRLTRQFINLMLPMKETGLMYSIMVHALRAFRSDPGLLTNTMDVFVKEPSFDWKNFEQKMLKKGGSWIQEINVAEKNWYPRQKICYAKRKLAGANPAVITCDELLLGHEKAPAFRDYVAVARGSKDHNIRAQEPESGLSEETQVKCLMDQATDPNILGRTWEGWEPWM

SMILES strings stand for the structures.

Chain of Cyclin-dependent kinase 1 (Homo sapiens) (P06493 whole entry, looked up): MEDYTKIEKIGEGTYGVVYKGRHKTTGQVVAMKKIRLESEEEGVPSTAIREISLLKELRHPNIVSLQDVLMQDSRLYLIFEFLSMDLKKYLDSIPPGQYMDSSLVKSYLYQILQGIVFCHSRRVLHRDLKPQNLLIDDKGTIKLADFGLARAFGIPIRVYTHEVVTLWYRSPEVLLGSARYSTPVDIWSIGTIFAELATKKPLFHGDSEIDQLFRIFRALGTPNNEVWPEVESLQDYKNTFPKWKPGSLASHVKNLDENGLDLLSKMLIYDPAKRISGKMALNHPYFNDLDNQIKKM

A word on the IC50: it is the concentration at which inhibition is half-maximal. A lower IC50 goes with greater potency in that assay. With `CC(C)[C@H](CO)Nc1nc(Nc2cccc(Cl)c2)c2ncn(C(C)C)c2n1` [PURVALANOLA], in [1], half-maximal inhibition (IC50) required 4 nM.
On to `N[C@H]1CC[C@H](Nc2nc(Nc3ccc(P(=O)(O)CP(=O)(O)O)cc3)c3ncn(C4CCCC4)c3n2)CC1`, for which the Selectivity is 10 in [2]; 1 in test [3]; > 500 in test [4]; > 500 in test [5]; 10 in test [7]; 100 in test [8]. The Selectivity in test [9] is > 500; in test [10], > 500; in [11], > 500; in [12], 100; in test [13], > 500; in [14] it was > 500. For the same compound, the Selectivity in test [15] was > 500; in [16] it was 100; in [17] it was > 500; in test [18], > 500; in test [19], > 500; in [20], 10. The Selectivity in test [21], in test [22], in [23], in [24] and in test [25] was > 500 in each case. In addition, the K' in test [6] amounted to 2.5.
As to `O=P(O)(O)C(O)(CCCNc1nc(Nc2ccccc2)c2ncn(C3CCCC3)c2n1)P(=O)(O)O`, the K' in [6] is 3.6.
As for `N[C@H]1CC[C@H](Nc2nc(Nc3ccccc3)c3ncn(C4CCCC4)c3n2)CC1`, in test [6], the K' is 0.
Same read-out and setting: the value for `N[C@H]1CC[C@H](Nc2nc(Nc3ccc(C(P(=O)(O)O)P(=O)(O)O)cc3)c3ncn(C4CCCC4)c3n2)CC1` was 3.3; that for `CN(C)CCNc1nc(Nc2ccccc2)c2ncn(C3CCCC3)c2n1` was 0.
`O=P(O)(O)CP(=O)(O)CCCNc1nc(Nc2ccccc2)c2ncn(C3CCCC3)c2n1`: the K' in test [6] is 2.3.
The same measure, in the same setting: the value for `N[C@H]1CC[C@H](Nc2nc(Nc3ccc(P(=O)(O)O)c(P(=O)(O)O)c3)c3ncn(C4CCCC4)c3n2)CC1` was 1.8.
